According to patent publication US20100035251A1, “BioMarkers for the Progression of Alzheimer's Disease” (priority 2006, published 2010):

Biological target: LRRK2 protein (SEQ ID NO:2) (Homo sapiens, UniProt Q5S007)
Assay: Drug Pull-Down experiments
Assay type: binding
Description: The pharmacological properties of the LRRK2 modulating agents can be evaluated, for example, in Drug Pull-Down experiments. The above-mentioned heterocyclic compounds can show activity in Drug Pull-Down experiments at concentrations below 20 μM.

Sequence of LRRK2 protein (SEQ ID NO:2) (Q5S007 whole entry R50H/L212S): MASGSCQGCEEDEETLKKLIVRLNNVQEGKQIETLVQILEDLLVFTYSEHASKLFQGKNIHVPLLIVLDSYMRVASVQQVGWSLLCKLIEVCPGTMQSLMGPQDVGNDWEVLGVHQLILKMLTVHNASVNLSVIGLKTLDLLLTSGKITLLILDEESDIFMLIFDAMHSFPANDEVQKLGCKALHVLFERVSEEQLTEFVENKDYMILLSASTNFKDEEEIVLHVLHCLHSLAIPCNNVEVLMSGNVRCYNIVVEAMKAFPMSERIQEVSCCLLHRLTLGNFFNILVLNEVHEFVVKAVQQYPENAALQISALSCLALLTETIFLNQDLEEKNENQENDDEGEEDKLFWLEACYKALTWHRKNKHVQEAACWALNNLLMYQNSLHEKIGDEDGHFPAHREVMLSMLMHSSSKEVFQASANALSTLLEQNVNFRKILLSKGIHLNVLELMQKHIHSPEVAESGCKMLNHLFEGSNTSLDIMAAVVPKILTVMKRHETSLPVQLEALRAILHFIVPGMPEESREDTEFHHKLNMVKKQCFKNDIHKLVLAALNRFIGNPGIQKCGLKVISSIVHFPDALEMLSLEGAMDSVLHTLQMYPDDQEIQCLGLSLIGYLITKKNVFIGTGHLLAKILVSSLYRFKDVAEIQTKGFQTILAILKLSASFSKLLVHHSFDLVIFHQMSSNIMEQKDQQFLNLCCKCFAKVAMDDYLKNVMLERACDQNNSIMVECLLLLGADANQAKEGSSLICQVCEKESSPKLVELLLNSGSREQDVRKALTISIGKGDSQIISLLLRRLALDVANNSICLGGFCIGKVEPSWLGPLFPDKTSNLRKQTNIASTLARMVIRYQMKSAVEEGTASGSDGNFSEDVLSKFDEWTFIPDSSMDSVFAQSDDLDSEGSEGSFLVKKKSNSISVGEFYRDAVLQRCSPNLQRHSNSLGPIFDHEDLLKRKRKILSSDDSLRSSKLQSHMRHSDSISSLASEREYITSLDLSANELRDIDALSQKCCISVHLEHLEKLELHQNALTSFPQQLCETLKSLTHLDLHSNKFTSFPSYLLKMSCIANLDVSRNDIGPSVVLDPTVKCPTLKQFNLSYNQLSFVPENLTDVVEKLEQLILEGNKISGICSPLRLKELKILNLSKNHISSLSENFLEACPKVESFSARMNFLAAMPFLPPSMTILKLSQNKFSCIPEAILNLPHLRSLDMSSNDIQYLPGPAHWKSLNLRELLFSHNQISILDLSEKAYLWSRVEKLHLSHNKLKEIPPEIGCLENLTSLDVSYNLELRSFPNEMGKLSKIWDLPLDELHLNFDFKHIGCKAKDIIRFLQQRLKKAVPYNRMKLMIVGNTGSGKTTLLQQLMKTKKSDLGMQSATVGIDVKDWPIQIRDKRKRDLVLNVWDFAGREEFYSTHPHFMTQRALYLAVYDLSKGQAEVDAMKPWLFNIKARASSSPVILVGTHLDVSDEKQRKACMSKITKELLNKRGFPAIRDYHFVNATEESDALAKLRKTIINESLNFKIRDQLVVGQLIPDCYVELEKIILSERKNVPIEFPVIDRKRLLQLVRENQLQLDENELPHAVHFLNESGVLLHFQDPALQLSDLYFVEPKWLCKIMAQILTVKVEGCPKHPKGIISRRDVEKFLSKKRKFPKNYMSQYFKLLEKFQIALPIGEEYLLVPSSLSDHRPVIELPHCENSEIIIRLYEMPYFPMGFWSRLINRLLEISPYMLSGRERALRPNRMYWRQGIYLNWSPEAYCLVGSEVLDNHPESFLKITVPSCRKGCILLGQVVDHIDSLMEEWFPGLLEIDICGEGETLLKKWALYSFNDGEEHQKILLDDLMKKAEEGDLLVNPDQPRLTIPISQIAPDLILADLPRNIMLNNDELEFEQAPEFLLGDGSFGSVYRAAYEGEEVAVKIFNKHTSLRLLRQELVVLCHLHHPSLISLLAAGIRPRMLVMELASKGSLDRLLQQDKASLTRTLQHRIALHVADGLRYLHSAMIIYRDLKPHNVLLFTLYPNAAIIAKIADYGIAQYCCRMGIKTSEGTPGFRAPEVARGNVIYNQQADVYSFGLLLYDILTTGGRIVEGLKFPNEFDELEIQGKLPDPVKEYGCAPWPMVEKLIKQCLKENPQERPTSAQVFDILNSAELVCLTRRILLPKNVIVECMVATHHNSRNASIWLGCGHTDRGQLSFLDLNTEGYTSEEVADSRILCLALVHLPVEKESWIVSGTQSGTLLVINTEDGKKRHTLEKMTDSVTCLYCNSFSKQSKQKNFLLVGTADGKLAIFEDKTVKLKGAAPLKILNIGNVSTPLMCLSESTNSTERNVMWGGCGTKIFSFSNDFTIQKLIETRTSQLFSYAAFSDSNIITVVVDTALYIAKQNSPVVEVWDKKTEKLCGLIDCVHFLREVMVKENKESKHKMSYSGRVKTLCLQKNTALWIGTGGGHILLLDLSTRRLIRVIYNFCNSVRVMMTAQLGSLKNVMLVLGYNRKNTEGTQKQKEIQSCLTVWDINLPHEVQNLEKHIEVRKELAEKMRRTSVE

## Cc1[nH]c(/C=C2\C(=O)Nc3ccccc32)c(C)c1CCC(=O)O [Compound 12]
  IC50: ~1000 nM
